Measurements as given in paper PMC2443190, “Novel Intermolecular Iterative Mechanism for Biosynthesis of Mycoketide Catalyzed by a Bimodular Polyketide Synthase” (PLoS Biology, 2008).

Key:
PKS12 [1] = target: T1, PKS12 (Mycobacterium tuberculosis, UniProt I6XD69)
PKS12 [2] = target: T1, PKS12; remark: listed apart in the source

T1 sequence (I6XD69 whole entry): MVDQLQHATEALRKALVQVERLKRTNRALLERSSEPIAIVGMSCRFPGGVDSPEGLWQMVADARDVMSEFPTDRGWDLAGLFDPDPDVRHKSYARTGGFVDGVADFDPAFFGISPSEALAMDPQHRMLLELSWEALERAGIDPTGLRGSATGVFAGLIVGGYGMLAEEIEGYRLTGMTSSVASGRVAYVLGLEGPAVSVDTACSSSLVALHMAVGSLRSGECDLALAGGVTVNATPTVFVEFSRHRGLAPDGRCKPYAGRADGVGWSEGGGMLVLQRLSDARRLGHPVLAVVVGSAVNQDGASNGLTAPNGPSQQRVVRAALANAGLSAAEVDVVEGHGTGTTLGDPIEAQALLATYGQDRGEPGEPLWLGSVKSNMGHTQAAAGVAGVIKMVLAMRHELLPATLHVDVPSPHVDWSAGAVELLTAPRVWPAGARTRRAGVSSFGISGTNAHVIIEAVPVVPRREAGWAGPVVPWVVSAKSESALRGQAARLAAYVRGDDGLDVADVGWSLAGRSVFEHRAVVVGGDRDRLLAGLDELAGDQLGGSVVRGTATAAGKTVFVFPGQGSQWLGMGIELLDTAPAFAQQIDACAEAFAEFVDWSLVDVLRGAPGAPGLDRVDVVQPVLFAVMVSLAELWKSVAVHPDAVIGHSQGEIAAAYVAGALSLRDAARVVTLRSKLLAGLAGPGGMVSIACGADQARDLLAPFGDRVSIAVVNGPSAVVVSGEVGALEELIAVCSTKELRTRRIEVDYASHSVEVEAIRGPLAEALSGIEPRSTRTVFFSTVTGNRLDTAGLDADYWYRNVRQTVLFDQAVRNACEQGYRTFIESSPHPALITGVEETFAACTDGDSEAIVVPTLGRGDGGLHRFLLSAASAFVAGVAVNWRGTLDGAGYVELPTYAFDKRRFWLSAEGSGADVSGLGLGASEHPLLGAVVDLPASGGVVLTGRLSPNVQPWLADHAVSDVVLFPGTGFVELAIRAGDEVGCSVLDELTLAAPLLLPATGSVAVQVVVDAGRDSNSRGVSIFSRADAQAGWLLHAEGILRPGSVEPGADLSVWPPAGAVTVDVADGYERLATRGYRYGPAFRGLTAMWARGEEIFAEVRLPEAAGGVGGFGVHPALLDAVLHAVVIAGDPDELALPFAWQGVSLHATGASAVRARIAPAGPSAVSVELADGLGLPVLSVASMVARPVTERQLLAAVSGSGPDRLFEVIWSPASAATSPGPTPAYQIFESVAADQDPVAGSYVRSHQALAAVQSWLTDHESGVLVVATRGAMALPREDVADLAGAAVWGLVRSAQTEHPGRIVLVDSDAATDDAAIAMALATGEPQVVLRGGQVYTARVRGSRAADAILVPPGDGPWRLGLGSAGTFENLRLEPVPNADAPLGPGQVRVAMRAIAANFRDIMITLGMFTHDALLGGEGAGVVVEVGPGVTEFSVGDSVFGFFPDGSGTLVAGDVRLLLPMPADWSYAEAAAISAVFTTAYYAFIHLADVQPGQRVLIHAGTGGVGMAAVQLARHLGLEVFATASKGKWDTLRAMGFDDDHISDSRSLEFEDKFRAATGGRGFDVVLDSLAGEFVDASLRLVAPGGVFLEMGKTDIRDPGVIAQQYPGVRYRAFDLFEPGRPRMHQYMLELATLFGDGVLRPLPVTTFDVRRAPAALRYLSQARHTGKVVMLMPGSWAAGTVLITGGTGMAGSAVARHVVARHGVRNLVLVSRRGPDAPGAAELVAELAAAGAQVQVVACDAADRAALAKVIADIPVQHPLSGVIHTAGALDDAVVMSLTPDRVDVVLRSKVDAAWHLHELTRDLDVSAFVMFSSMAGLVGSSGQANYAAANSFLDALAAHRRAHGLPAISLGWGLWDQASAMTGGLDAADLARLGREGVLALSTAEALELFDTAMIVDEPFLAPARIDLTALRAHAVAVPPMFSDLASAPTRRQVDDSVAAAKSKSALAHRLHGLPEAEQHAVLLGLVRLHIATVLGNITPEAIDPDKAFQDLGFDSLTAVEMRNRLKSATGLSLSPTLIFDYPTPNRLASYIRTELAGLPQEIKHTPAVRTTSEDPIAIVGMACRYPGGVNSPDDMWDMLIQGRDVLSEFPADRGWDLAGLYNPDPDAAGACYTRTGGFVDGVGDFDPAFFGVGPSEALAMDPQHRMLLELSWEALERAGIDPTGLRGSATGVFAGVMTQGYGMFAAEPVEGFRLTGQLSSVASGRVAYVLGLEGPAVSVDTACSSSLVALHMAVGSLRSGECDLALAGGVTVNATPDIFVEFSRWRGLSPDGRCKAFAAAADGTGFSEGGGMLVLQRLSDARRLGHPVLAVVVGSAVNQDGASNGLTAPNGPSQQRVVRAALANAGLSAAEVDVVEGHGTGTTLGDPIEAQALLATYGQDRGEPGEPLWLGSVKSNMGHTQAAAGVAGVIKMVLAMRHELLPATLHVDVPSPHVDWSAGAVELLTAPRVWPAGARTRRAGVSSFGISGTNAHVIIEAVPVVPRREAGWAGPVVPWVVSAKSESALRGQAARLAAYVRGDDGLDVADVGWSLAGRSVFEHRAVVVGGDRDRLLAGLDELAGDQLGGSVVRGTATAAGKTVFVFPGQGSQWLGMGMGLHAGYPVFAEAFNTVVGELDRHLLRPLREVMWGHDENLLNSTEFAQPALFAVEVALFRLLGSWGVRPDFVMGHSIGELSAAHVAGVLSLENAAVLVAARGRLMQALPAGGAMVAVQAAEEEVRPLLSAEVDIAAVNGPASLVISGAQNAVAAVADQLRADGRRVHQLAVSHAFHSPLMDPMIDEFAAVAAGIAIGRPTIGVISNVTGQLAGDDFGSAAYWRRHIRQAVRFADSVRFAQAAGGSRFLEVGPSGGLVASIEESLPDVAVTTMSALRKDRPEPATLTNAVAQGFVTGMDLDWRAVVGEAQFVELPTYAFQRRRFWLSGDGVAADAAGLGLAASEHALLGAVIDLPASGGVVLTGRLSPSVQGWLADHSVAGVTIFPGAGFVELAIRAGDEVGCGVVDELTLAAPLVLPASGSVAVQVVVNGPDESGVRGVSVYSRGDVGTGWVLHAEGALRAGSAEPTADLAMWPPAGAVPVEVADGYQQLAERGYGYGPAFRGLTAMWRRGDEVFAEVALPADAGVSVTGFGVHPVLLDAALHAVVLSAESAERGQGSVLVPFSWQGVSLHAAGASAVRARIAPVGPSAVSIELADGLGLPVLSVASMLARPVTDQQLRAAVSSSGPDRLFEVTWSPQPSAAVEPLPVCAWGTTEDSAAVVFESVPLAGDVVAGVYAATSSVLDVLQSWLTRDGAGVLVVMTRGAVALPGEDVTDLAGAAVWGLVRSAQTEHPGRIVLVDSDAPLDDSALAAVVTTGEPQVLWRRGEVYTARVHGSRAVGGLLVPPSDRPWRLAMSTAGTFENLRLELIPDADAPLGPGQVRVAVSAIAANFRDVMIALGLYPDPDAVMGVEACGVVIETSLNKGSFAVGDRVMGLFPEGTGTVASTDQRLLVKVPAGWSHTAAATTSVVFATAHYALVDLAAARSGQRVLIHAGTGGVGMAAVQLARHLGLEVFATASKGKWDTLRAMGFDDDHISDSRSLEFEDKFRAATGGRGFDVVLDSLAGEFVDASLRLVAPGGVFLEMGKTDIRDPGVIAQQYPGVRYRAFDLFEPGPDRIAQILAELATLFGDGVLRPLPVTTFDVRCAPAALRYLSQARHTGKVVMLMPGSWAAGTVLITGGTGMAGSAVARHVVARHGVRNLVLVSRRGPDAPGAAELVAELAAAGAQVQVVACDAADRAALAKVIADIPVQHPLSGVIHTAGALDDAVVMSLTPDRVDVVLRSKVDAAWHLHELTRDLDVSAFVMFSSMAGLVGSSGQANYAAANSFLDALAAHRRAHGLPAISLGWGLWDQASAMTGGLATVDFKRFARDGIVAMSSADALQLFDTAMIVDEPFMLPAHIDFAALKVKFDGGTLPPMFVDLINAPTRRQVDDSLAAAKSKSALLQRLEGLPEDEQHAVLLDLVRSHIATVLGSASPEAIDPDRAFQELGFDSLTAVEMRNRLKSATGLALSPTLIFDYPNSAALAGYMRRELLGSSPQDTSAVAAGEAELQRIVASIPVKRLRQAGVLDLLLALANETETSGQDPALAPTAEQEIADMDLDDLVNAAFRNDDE

SMILES | inhibition at 100 μM (PKS12 [1]) | 14C labelling of protein, SDS-PAGE phosphorimaging (PKS12 [2])
C/C=C/C/C=C/CCC(=O)[C@H]1O[C@H]1C(N)=O [cerulenin] | incubation of PKS12 protein with KS inhibitor cerulenin showed no radioactive bands | 
CC(C(=O)O)C(=O)SCCNC(=O)CCNC(=O)[C@H](O)C(C)(C)COP(=O)(O)OP(=O)(O)OC[C@H]1O[C@@H](n2cnc3c(N)ncnc32)[C@H](O)[C@@H]1OP(=O)(O)O (stereo partly drawn) [methylmalonyl CoA] |  | SDS-PAGE gel-binding assays clearly showed that PKS12 could be radiolabeled with both of these substrates
CC(C)(COP(=O)(O)OP(=O)(O)OC[C@H]1O[C@@H](n2cnc3c(N)ncnc32)[C@H](O)[C@@H]1OP(=O)(O)O)[C@@H](O)C(=O)NCCC(=O)NCCSC(=O)CC(=O)O [malonyl CoA] |  | SDS-PAGE gel-binding assays clearly showed that PKS12 could be radiolabeled with both of these substrates
